Converted amounts (≈) assume the structure as drawn.
Legend:
Assay type in all cases: cell-based
Escherichia coli = experiment: Disk diffusion, Escherichia coli; details: Gram negative, 8.0 mm disks, 10 μL
Procedure: (§1) The disk diffusion method was used for determination of the antimicrobial activity using ampicillin, gentamicin and amphotericin B as reference drugs. The results were recorded for each compounds as the average diameter as inhibition zones (IZ) of bacterial or fungal growth around the discs in mm as shown in Table 2.
(§2) Antimicrobial activities were carried out against highly pathogenic strains; three strains of Gram positive bacteria (Bacillus subtilis, Staphylococcus aureus and Streptococcus faecalis), four strains of Gram negative bacteria (Escherichia coli, Neisseria gonorrhoeae, Pseudomonas aeruginosa and Salmonella typhimurium) and three fungi strains (Aspergillus flavus, Aspergillus fumigatus and Candida albicans) isolated from primary agar plates. Antimicrobial activity of the tested samples was determined using a modified Kriby-Bauer disk diffusion method. Briefly, 100 µL of the test bacteria/fungi were grown in 10 mL of fresh media until they reached a count approximately 10^8 cells/mL for bacteria or 10^5 cells/mL for fungi. 100 µL of microbial suspension was spread onto agar plates corresponding to the broth in which they were maintained. The inoculated plates of bacterial strains were incubated at 35–37 °C for 24–48 h, while the inoculated plates of fungal strains such as A. flavus and A. fumigatus were incubated at 25 °C for 48 h and yeast as C. albicans was incubated at 30 °C for 24–48 h.
(§3) The agar disk diffusion (qualitative) method was used in this investigation for determination of the preliminary antibacterial and antifungal activities. The agar used was Mueller-Hinton agar plates that are rigorously tested for composition and pH. Further the depth of the agar in the plate is a factor to be considered in the disk diffusion method.
(§4) Reference drugs: ampicillin was used as a standard antibacterial drug for Gram positive bacteria, gentamicin as a standard antibacterial drug for Gram negative bacteria and amphotericin B as antifungal standard drug.
(§5) Bacterial and fungal strains were spread onto the surface of the agar plates using sterile cotton swabs. For evaluation of antibacterial activities, blank paper disks (Schleicher & Schuell, Alicante, Spain) with a diameter of 8.0 mm were saturated with 10 μL of tested concentration of the stock solutions. Disks were dried and then placed onto inoculated agar plates. The plates of bacterial strains were reincubated at 35–37 °C for 24–48 h, while the plates of fungal strains such as A. flavus and A. fumigatus were reincubated at 25 °C for 48 h and yeast as C. albicans was reincubated at 30 °C for 24–48 h as mentioned above. […] For an accurate analysis, tests were run in triplicate for each strain to avoid any error as described in Table 2.

Staphylococcus aureus [1] = experiment: MIC by broth dilution, Staphylococcus aureus; details: Staphylococcus aureus, Gram positive, 0.98-125 µg/mL, read-out: Minimum Inhibitory Concentration (MIC) (µg/mL) Staphylococcus aureus
Procedure: (§6) In this study, MIC (quantitative method) was used for evaluation of the antimicrobial activity of tested compounds. Screening was evaluated in vitro using the Broth dilution method according to CLSI [45]. All the bacteria were incubated and activated at 30 °C for 24 h inoculation into nutrient broth and the fungi were incubated in malt extract broth for 48 h. The compounds were dissolved in DMSO and then diluted using […] Mueller-Hinton broth. […] In each case triplicate tests were performed and the average was taken as the final reading. The tubes were then inoculated with the test organisms, grown in their suitable broth at 37 °C for 24 h for tested microorganisms (1 × 10^8 CFU/mL for bacteria and 1 × 10^6 CFU/mL of fungi), each 5 mL received 0.1 mL of the above inoculum and incubated at 37 °C for 24 h.

Aspergillus fumigatus [2] = experiment: Disk diffusion, Aspergillus fumigatus; details: Fungi, 8.0 mm disks, 10 μL
Procedure: as §1, §2, §3, §4, §5
Disk diffusion method for filamentous fungi testing by using approved standard method (M02-A11) developed by the CLSI for evaluating the susceptibilities of filamentous fungi to antifungal agents. Disk diffusion method for yeasts developed by using approved standard method (M44-A2) by the CLSI [44]. Agar-based methods such as disk diffusion can be good alternatives because they are simpler and faster than broth-based methods.

Staphylococcus aureus [3] = experiment: Disk diffusion, Staphylococcus aureus; details: Gram positive, 8.0 mm disks, 10 μL
Procedure: as §1, §2, §3, §4, §5

[4] = tested on: Gram positive and negative bacteria; experiment: MIC by broth dilution, summary over bacterial strains; details: range over bacterial strains as summarised in text
Procedure: as §1, §6

[5] = tested on: Gram positive and negative bacteria; experiment: Disk diffusion, summary over bacterial strains; details: range over bacterial strains as summarised in text
Procedure: as §1
as §2, with “The inoculated plates of bacterial strains were incubated at 35–37 °C for 24–48 h, while the inoculated plates of fungal strains such as A. flavus and A. fumigatus were incubated at 25 °C for 48 h and yeast as C. albicans was incubated at 30 °C for 24–48 h.” left out

Neisseria gonorrhoeae = experiment: Disk diffusion, Neisseria gonorrhoeae; details: Gram negative, 8.0 mm disks, 10 μL
Procedure: as §1, §2, §3, §4, §5

Pseudomonas aeruginosa = experiment: Disk diffusion, Pseudomonas aeruginosa; details: Gram negative, 8.0 mm disks, 10 μL
Procedure: as §1, §2, §3, §4, §5

Candida albicans = experiment: MIC by broth dilution, Candida albicans; details: Fungi, 0.98-125 µg/mL, read-out: Minimum Inhibitory Concentration (MIC) (µg/mL) Candida albicans
Procedure: as §1, §6

Aspergillus fumigatus [6] = experiment: MIC by broth dilution, Aspergillus fumigatus; details: Fungi, 0.98-125 µg/mL, read-out: Minimum Inhibitory Concentration (MIC) (µg/mL) Aspergillus fumigatus
Procedure: as §1, §6

[7] = tested on: A. fumigatus and C. albicans; experiment: Disk diffusion, summary over A. fumigatus and C. albicans; details: range over both fungi
Procedure: as §1, §2, §3, §4
Bacterial and fungal strains were spread onto the surface of the agar plates using sterile cotton swabs. […]

[8] = tested on: A. fumigatus and C. albicans; experiment: MIC by broth dilution, summary over A. fumigatus and C. albicans; details: range over both fungi
Procedure: as §1, §6

MIC (Staphylococcus aureus [1]) [µg/mL]	MIC (Candida albicans) [µg/mL]	MIC (Aspergillus fumigatus [6]) [µg/mL]	MIC range against A. fumigatus and C. albicans [8] [µg/mL]	SMILES	Inhibition Zone Diameter (IZ) (mm) Escherichia coli (Escherichia coli) [mm]	Inhibition Zone Diameter (IZ) (mm) Aspergillus fumigatus (Aspergillus fumigatus [2])	Inhibition Zone Diameter (IZ) (mm) Staphylococcus aureus (Staphylococcus aureus [3]) [mm]	MIC range against Gram positive and negative bacteria [4] [µg/mL]	IZ range against Gram positive and negative bacteria [5]	Inhibition Zone Diameter (IZ) (mm) Neisseria gonorrhoeae (Neisseria gonorrhoeae)	Inhibition Zone Diameter (IZ) (mm) Pseudomonas aeruginosa (Pseudomonas aeruginosa) [mm]	IZ range against A. fumigatus and C. albicans [7]
62.5 (≈ 188 µM)	62.5 (≈ 188 µM)	31.2 (≈ 93.8 µM)	0.98 to 62.5	Brc1ccc2nc(N3CCCCC3)c3nnnn3c2c1 [Compound 5a, 8-Bromo-4-(piperidin-1-yl)tetrazolo[1,5-a]quinoxaline]	13	12 mm	11	–	–	R (R (IZ = 0 mm))	11	5–13 mm
7.81 (≈ 26.8 µM)	–	–	–	Brc1ccc2c(c1)n1nnnc1c1nnnn21 [Compound 11, 9-Bromoditetrazolo[1,5-a:5′,1′-c]quinoxaline]	15	R (R (IZ = 0 mm))	17	–	–	R (R (IZ = 0 mm))	14	–
1.95 (≈ 5.85 µM)	–	–	–	Cc1cc(C)n(-c2nc3cc(Br)ccc3nc2NN)n1 [Compound 14, 6-Bromo-3-(3,5-dimethyl-1H-pyrazol-1-yl)-2-hydrazinyl quinoxaline]	12	R (R (IZ = 0 mm))	12	–	–	12 mm	12	–
3.9 (≈ 13.7 µM)	3.9 (≈ 13.7 µM)	–	–	Clc1nc2ccc(Br)cc2n2nnnc12 [Compound 4, 8-Bromo-4-chlorotetrazolo[1,5-a]quinoxaline]	17	10 mm	26	–	–	21 mm	21	–
1.95 (≈ 4.84 µM)	–	–	–	NC1=NN(c2nc3ccc(Br)cc3nc2N2N=C(N)CC2=O)C(=O)C1 [Compound 16, 6-Bromo-2,3-bis(3-amino-1H-pyrazol-5(4H)-one)quinoxaline]	10	R (R (IZ = 0 mm))	12	–	–	11 mm	11	–
1.95 (≈ 5.82 µM)	3.9 (≈ 11.6 µM)	1.95 (≈ 5.82 µM)	0.98 to 62.5	Brc1ccc2nc(N3CCOCC3)c3nnnn3c2c1 [Compound 5b, 8-Bromo-4-(morpholin-4-yl)tetrazolo[1,5-a]quinoxaline]	11	12 mm	17	–	–	R (R (IZ = 0 mm))	10	5–13 mm
1.95 (≈ 7.25 µM)	0.98 (≈ 3.64 µM)	0.98 (≈ 3.64 µM)	0.98 to 62.5	NNc1nc2ccc(Br)cc2nc1NN [Compound 9, 6-Bromo-2,3-dihydrazinylquinoxaline]	29	5 mm	27	–	–	28 mm	31	5–13 mm

SMILES	MIC (Staphylococcus aureus [1]) [µg/mL]	MIC (Candida albicans) [µg/mL]	MIC (Aspergillus fumigatus [6]) [µg/mL]	MIC range against A. fumigatus and C. albicans [8] [µg/mL]	Inhibition Zone Diameter (IZ) (mm) Escherichia coli (Escherichia coli) [mm]	Inhibition Zone Diameter (IZ) (mm) Aspergillus fumigatus (Aspergillus fumigatus [2])	Inhibition Zone Diameter (IZ) (mm) Staphylococcus aureus (Staphylococcus aureus [3]) [mm]	MIC range against Gram positive and negative bacteria [4] [µg/mL]	IZ range against Gram positive and negative bacteria [5]	Inhibition Zone Diameter (IZ) (mm) Neisseria gonorrhoeae (Neisseria gonorrhoeae)	Inhibition Zone Diameter (IZ) (mm) Pseudomonas aeruginosa (Pseudomonas aeruginosa) [mm]	IZ range against A. fumigatus and C. albicans [7]
NNc1nc2cc(Br)ccc2nc1Cl [Compound 3, 6-Bromo-2-chloro-3-hydrazinylquinoxaline]	3.9 (≈ 14.3 µM)	–	–	–	13	R (R (IZ = 0 mm))	14	0.98 to 125	13–15 mm	14 mm	14	–

— publication PMC6332220, “Synthesis, Characterization and Biological Evaluation of Some Quinoxaline Derivatives: A Promising and Potent New Class of Antitumor and Antimicrobial Agents” (Molecules, 2015)
